As usually defined, the IC50 is the concentration at which inhibition is half-maximal.

The assay addresses human PAD4 (hPAD4) (Homo sapiens, UniProt Q9UM07). Kind of assay: RFMS Human PAD4 Functional Assay. Conditions: 5 nM hPAD4, 250 μM BAEE. Type of assay: biochemical. The method, boiled down:
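RapidFire ESI-MS quantification, normalised to a modified-citrulline internal standard, after phenyl glyoxal (final 4 mM) derivatisation of the TCA-quenched reaction. The enzyme (10 nM) sat 30 min with compound (up to 50 μM final) before 500 μM BAEE (as added) started a 90 min, 37 °C reaction. Buffer: HEPES pH 7.5, 50 μM calcium, 5 μM TPEN.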

[1] abbreviates: human PAD4, rapid-fire mass spectrum (RFMS) assay, read-out: hPAD4 RFMS IC50.
[2] abbreviates: hPAD4 RFMS IC50, human PAD4, rapid-fire mass spectrum (RFMS) assay.

Where two headings read alike, the source gives them in different places.

Sequence of human PAD4 (hPAD4) (Q9UM07 whole entry): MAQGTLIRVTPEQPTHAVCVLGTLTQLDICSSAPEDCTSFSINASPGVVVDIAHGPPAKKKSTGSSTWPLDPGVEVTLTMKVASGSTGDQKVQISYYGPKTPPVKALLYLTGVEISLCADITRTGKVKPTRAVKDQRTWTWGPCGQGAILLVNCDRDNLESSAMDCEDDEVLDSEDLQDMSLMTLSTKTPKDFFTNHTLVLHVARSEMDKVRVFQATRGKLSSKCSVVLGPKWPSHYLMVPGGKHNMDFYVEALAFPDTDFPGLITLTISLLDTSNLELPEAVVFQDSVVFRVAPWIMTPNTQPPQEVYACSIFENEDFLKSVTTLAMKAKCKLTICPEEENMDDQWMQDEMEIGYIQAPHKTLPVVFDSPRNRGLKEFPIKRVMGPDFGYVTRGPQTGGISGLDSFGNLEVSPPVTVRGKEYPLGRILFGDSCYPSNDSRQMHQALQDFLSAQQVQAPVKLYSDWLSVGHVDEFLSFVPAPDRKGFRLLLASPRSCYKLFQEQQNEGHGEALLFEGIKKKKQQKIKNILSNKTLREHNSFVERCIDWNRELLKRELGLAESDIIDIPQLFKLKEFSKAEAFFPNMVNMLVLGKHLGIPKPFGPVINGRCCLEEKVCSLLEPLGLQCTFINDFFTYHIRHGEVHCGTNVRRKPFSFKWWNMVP

With `COc1cc(C(=O)N2C[C@H]3CC[C@@H]2[C@@H]3N)cc2nc(-c3cc4cccc(-c5ccccc5O)c4n3CC3CC3)n(C)c12` [Example 87, 2-(2-{5-[(1R,4R,7R)-7-amino-2-azabicyclo[2.2.1]heptane-2-carbonyl]-7-methoxy-1-methyl-1H-1,3-benzodiazol-2-yl}-1-(cyclopropylmethyl)-1H-indol-7-yl)phenol], under setting [1], the IC50 came out at 111 nM. Take `COc1cc(C(=O)N2C[C@H]3CC[C@@H]2[C@@H]3N)cc2nc(-c3cc4cccc(-c5ccccc5C#N)c4n3CC3CC3C)n(C)c12` (stereo partly drawn) [Example 155, 2-(2-(5-((1R,4R,7R)-7-amino-2-azabicyclo[2.2.1]heptane-2-carbonyl)-7-methoxy-1-methyl-1H-benzo[d]imidazol-2-yl)-1-((2-methylcyclopropyl)meth-yl)-1H-indol-7-yl)benzonitrile]: half-maximal inhibition under setting [2] (IC50) required 171 nM. For `COc1cc(C(=O)N2C[C@H]3CC[C@@H]2[C@@H]3N)cc2nc(-c3cc4cccc(C5CCN(C(=O)OCc6ccccc6)C5)c4n3CC3CC3)n(C)c12` (stereo partly drawn) [Example 28, benzyl 3-(2-{5-[(1R,4R,7R)-7-amino-2-azabicyclo[2.2.1]heptane-2-carbonyl]-7-methoxy-1-methyl-1H-1,3-benzodiazol-2-yl}-1-(cyclopropylmethyl)-1H-indol-7-yl)pyrrolidine-1-carboxylate], under setting [2], the IC50 came out at 67 nM. Turning to `COc1cc(C(=O)N2C[C@H]3CC[C@@H]2[C@@H]3N)cc2nc(-c3cc4cccc(C)c4n3CC3CC3)n(C)c12` [Example 147, ((1R,4R,7R)-7-amino-2-azabicyclo[2.2.1]heptan-2-yl)(2-(1-(cyclopropylmethyl)-7-methyl-1H-indol-2-yl)-7-methoxy-1-methyl-1H-benzo[d]imidazol-5-yl)methanone], under setting [2], the IC50 was found to be 79 nM. With `COc1cccc(NC(=O)N2CCC(c3cccc4cc(-c5nc6cc(C(=O)N7C[C@H]8CC[C@@H]7[C@@H]8N)cc(OC)c6n5C)n(CC5CC5)c34)CC2)c1` [Example 248, 4-(2-(5-((1R,4R,7R)-7-amino-2-azabicyclo[2.2.1]heptane-2-carbonyl)-7-methoxy-1-methyl-1H-benzo[d]imidazol-2-yl)-1-(cyclopropylmethyl)-1H-indol-7-yl)-N-(3-methoxyphenyl)piperi-dine-1-carboxamide], the IC50 under setting [2] was 20 nM.

As for `COc1cc(C(=O)N2CC3CCC2[C@@H]3N)cc2nc(-c3cc4cccc(Nc5cc(C)nc(C)c5)c4n3CC3CC3)n(C)c12` (stereo partly drawn) [Example 161, ((7R)-7-amino-2-azabicyclo[2.2.1]heptan-2-yl)(2-(1-(cyclopropylmethyl)-7-((2,6-dimethylpyridin-4-yl)amino)-1H-indol-2-yl)-7-methoxy-1-methyl-1H-benzo[d]imidazol-5-yl)methanone], under setting [2], it took 103 nM to reach half-maximal inhibition (IC50).

Compound `COc1cc(C(=O)N2C[C@H]3CC[C@@H]2[C@@H]3N)cc2nc(-c3cc4cccc(-c5cnc(C(N)=O)c(F)c5)c4n3CC3CC3)n(C)c12` [Example 199, 5-(2-(5-((1R,4R,7R)-7-amino-2-azabicyclo[2.2.1]heptane-2-carbonyl)-7-methoxy-1-methyl-1H-benzo[d]imidazol-2-yl)-1-(cyclopropylmethyl)-1H-indol-7-yl)-3-fluoropicolinamide] returned an IC50 under setting [2] of 159 nM. Take `COc1cc(C(=O)N2C[C@H]3CC[C@@H]2[C@@H]3N)cc2nc(-c3cc4cccc(CCCO)c4n3CC3CC3)n(C)c12` [Example 2, ((1R,4R,7R)-7-amino-2-azabicyclo[2.2.1]heptan-2-yl)(2-(1-(cyclopropylmethyl)-7-(3-hydroxypropyl)-1H-indol-2-yl)-7-methoxy-1-methyl-1H-benzo[d]imidazol-5-yl)methanone]: under setting [1], the IC50 amounted to 32 nM. For the compound `COc1cc(C(=O)N2C[C@H]3CC[C@@H]2[C@@H]3N)cc2nc(-c3cc4cccc(C#N)c4n3CC3CC3)n(C)c12` [Example 183, 2-(5-((1R,4R,7R)-7-amino-2-azabicyclo[2.2.1]heptane-2-carbonyl)-7-methoxy-1-methyl-1H-benzo[d]imidazol-2-yl)-1-(cyclopropylmethyl)-1H-indole-7-carbonitrile], under setting [1], the IC50 stood at 128 nM. Under setting [2], `COc1cc(C(=O)N2C[C@H]3CC[C@@H]2[C@@H]3N)cc2nc(-c3cc4cccc(C5CN(C(=O)Cc6ccccn6)C5)c4n3CC3CC3)n(C)c12` [Example 75, 1-[3-(2-{5-[(1R,4R,7R)-7-amino-2-azabicyclo[2.2.1]heptane-2-carbonyl]-7-methoxy-1-methyl-1H-1,3-benzodiazol-2-yl}-1-(cyclopropylmethyl)-1H-indol-7-yl)azetidin-1-yl]-1-(pyridin-2-yl)ethan-1-one] showed an IC50 of 34 nM.

As for `COc1cc(C(=O)N2C[C@H]3CC[C@@H]2[C@@H]3N)cc2nc(-c3cc4cccc(C5CC(NC(C)=O)C5)c4n3CC3CC3)n(C)c12` (single isomer, unassigned) [Example 58], the half-inhibitory concentration (IC50) under setting [1] came to 75 nM.

Under setting [2], `COc1cc(C(=O)N2C[C@H]3CC[C@@H]2[C@@H]3N)cc2nc(-c3cc4cccc(-c5ccc(C(N)=O)nc5)c4n3CC3CC3)n(C)c12` [Example 194, 5-(2-(5-((1R,4R,7R)-7-amino-2-azabicyclo[2.2.1]heptane-2-carbonyl)-7-methoxy-1-methyl-1H-benzo[d]imidazol-2-yl)-1-(cyclopropylmethyl)-1H-indol-7-yl)picolinamide] showed an IC50 of 146 nM. Still for that read-out and setting: to `COc1cc(C(=O)N2C[C@H](N)C[C@@H](F)C2)cc2nc(-c3cc4cccc(C5CCN(C(C)=O)CC5)c4n3CC3CC3)n(C)c12` [Example 227, 1-(4-(2-(5-((3R,5R)-3-amino-5-fluoropiperidine-1-carbonyl)-7-methoxy-1-methyl-1H-benzo[d]imidazol-2-yl)-1-(cyclopropylmethyl)-1H-indol-7-yl)piperidin-1-yl)ethan-1-one] belongs 77 nM. The same measure, in the same setting: for `COCC(=O)N1CC(c2cccc3cc(-c4nc5cc(C(=O)N6C[C@H]7CC[C@@H]6[C@@H]7N)cc(OC)c5n4C)n(CC4CC4)c23)C1` [Example 71, 1-[3-(2-{5-[(1R,4R,7R)-7-amino-2-azabicyclo[2.2.1]heptane-2-carbonyl]-7-methoxy-1-methyl-1H-1,3-benzodiazol-2-yl}-1-(cyclopropylmethyl)-1H-indol-7-yl)azetidin-1-yl]-2-methoxyethan-1-one] the value was 16 nM; for `COc1cc(C(=O)N2C[C@H]3CC[C@@H]2[C@@H]3N)cc2nc(-c3cc4cccc(Nc5cnn(CC(F)(F)F)c5)c4n3CC3CC3)n(C)c12` [Example 165, ((1R,4R,7R)-7-amino-2-azabicyclo[2.2.1]heptan-2-yl)(2-(1-(cyclopropylmethyl)-7-((1-(2,2,2-trifluoroethyl)-1H-pyrazol-4-yl)amino)-1H-indol-2-yl)-7-methoxy-1-methyl-1H-benzo[d]imidazol-5-yl)methanone], 75 nM. Under setting [2], `COc1cc(C(=O)N2C[C@H]3CC[C@@H]2[C@@H]3N)cc2nc(-c3cc4cccc(Nc5cn(C)nc5C)c4n3CC3CC3)n(C)c12` [Example 173, ((1R,4R,7R)-7-amino-2-azabicyclo[2.2.1]heptan-2-yl)(2-(1-(cyclopropylmethyl)-7-((1,3-dimethyl-1H-pyrazol-4-yl)amino)-1H-indol-2-yl)-7-methoxy-1-methyl-1H-benzo[d]imidazol-5-yl)methanone] displayed an IC50 of 42 nM.

Consider `COc1cc(C(=O)N2C[C@H]3CC[C@@H]2[C@@H]3N)cc2nc(-c3cc4cccc(-c5ccc6c(c5)C(O)(C(F)(F)F)C(=O)N6)c4n3CC3CC3)n(C)c12` (stereo partly drawn) [Example 198, 5-(2-(5-((1R,4R,7R)-7-amino-2-azabicyclo[2.2.1]heptane-2-carbonyl)-7-methoxy-1-methyl-1H-benzo[d]imidazol-2-yl)-1-(cyclopropylmethyl)-1H-indol-7-yl)-3-hydroxy-3-(trifluoromethyl)indolin-2-one], for which the IC50 under setting [2] was found to be 26 nM. Under setting [2], `COc1cc(C(=O)N2C[C@H]3CC[C@@H]2[C@@H]3N)cc2nc(-c3cc4cccc(C5CN(C(=O)c6ccccc6)C5)c4n3CC3CC3)n(C)c12` [Example 74, (1R,4R,7R)-2-{2-[7-(1-benzoylazetidin-3-yl)-1-(cyclopropylmethyl)-1H-indol-2-yl]-7-methoxy-1-methyl-1H-1,3-benzodiazole-5-carbonyl}-2-azabicyclo[2.2.1]heptan-7-amine] yielded a half-maximal inhibitory concentration (IC50) of 71 nM. Turning to `COc1cc(C(=O)N2CC3CCC2[C@@H]3N)cc2nc(-c3cc4cccc(-c5ccc6ccn(C)c6c5)c4n3CC3CC3)n(C)c12` (stereo partly drawn) [Example 126, ((7R)-7-amino-2-azabicyclo[2.2.1]heptan-2-yl)(2-(1′-(cyclopropylmethyl)-1-methyl-1H,1′H-[6,7′-biindol]-2′-yl)-7-methoxy-1-methyl-1H-benzo[d]imidazol-5-yl)methanone], the IC50 under setting [2] is 110 nM. As to `COc1cc(C(=O)N2C[C@H]3CC[C@@H]2[C@@H]3N)cc2nc(-c3cc4cccc(-c5cccc(C(O)CO)c5)c4n3CC3CC3)n(C)c12` (stereo partly drawn) [Example 222, ((1R,4R,7R)-7-amino-2-azabicyclo[2.2.1]heptan-2-yl)(2-(1-(cyclopropylmethyl)-7-(3-(1,2-dihydroxyethyl)phenyl)-1H-indol-2-yl)-7-methoxy-1-methyl-1H-benzo[d]imidazol-5-yl)methanone], the IC50 under setting [2] is 94 nM.

Compound `COc1cc(C(=O)N2C[C@H]3CC[C@@H]2[C@@H]3N)cc2nc(-c3cc4cccc(CC5CCOCC5)c4n3CC3CC3)n(C)c12` [Example 31, (1R,4R,7R)-2-{2-[1-(cyclopropylmethyl)-7-[(oxan-4-yl)methyl]-1H-indol-2-yl]-7-methoxy-1-methyl-1H-1,3-benzodiazole-5-carbonyl}-2-azabicyclo[2.2.1]heptan-7-amine] showed an IC50 under setting [2] of 198 nM.

(Values after patent US20220402950A1, “SUBSTITUTED BENZIMIDAZOLES AS PAD4 INHIBITORS” (BRISTOL-MYERS SQUIBB COMPANY, priority 2018, published 2022).)
